Source: patent EP2514430B1, “METHOD AND APPARATUS FOR SIMULTANEOUSLY MANUFACTURING ULTRA PURE BETULIN AND HIGHLY PURE BETULINIC ACID FROM BIRCH BARK” (Korea Institute of Energy Research, priority 2009, dated 2011)
Values after ≈ are worked out from the molar mass of the structure shown. Like-named read-outs stand apart in the source and are kept apart here.

Columns and labels:
[1] = Solubility of betulin in single and mixed polar organic solvents; assay type: physicochemical; conditions: organic solvent or mixture
Text: This recrystallization step is an intermediate step for obtaining ultrapure betulin of 99.5% or more and highly-pure betulinic acid of 95% or more. The outer bark and inner bark of a birch tree generally includes betulin, betulinic acid, lupeol (CAS 545-47-1) and polar pigment components. […] When the outer bark of a birch tree is extracted using such a polar organic solvent, a crude extract including 70 ∼ 83% of betulin, 4 ∼ 8% of betulinic acid and residual polar pigment components can be obtained. In this case, in order to use betulin and betulinic acid as intermediate materials for fine chemical products or medical supplies or additives for enhancing antiviral activity, the crude extract is recrystallized.
Preferably, a mixture of organic solvents having a density range of 0.91 g/mL ∼ 1.37 g/mL may be used. […] The crude extract is recrystallized using such a mixture of organic solvents to obtain a high-quality crystallized product (including a secondary crystallized product) including 94 ∼ 96.5% of betulin, 3 ∼ 4% of betulinic acid and residual polar pigment components, and then ultrapure betulin is produced using a 4-bed eluent swing continuous adsorption unit.

herpes simplex viruses = conditions: betulin mixed with acyclovir; Gong et al. 2004; cited from earlier work
[2] = system: human prostatic cancer cells (LNCaP, PC-3, and DU-145) and fibroblast cells; conditions: PC-3, DU-145 and fibroblast cells, US 2006/0154903; cited from earlier work

| Compound | solubility ([1]; chloroform, at 60.5°C, read-out: solubility of betulin in chloroform) | solubility ([1]; chloroform:ethanol 18:82 v/v, density = 0.91 g/mL, at 60.5°C, read-out: solubility of betulin in the mixed solvent of chloroform and ethanol) | solubility ([1]; chloroform:ethanol 57:43 v/v, density = 1.19 g/mL, at 60.5°C, read-out: solubility of betulin in the mixed solvent of chloroform and ethanol) | solubility ([1]; chloroform:ethanol 82:18 v/v, density = 1.37 g/mL, at 60.5°C, read-out: solubility of betulin in the mixed solvent of chloroform and ethanol) | solubility ([1]; ethanol, at 77.1°C, read-out: solubility of betulin in ethanol) | solubility ([1]; ethanol, at 78°C, read-out: solubility of betulin in ethanol) | solubility ([1]; ethyl acetate, at 60.5°C, read-out: solubility of betulin in ethyl acetate) | solubility ([1]; ethyl acetate, at 77.1°C, read-out: solubility of betulin in ethyl acetate) | solubility ([1]; methanol, at 64.7°C, read-out: solubility of betulin in methanol) | antiviral effects to herpes simplex viruses (herpes simplex viruses) | inhibiting the growth of human prostatic cancer cells and fibroblast cells [2] |
| --- | --- | --- | --- | --- | --- | --- | --- | --- | --- | --- | --- |
| C=C(C)[C@@H]1CC[C@]2(CO)CC[C@]3(C)[C@H](CC[C@@H]4[C@@]5(C)CC[C@H](O)C(C)(C)[C@@H]5CC[C@]43C)[C@@H]12 [betulin] | ≤ 40.7 mg/mL | 38.6 mg/mL (≈ 87.2 mM) | 140 mg/mL (≈ 316 mM) | 163 mg/mL (≈ 368 mM) | ≤ 23 mg/mL | ≤ 18.5 mg/mL | ≤ 40.7 mg/mL | ≤ 23 mg/mL | ≤ 6.73 mg/mL | antiviral effects were provided |  |
| C=C(C)[C@@H]1CC[C@]2(C(=O)O)CC[C@]3(C)[C@H](CC[C@@H]4[C@@]5(C)CCC(=O)C(C)(C)[C@@H]5CC[C@]43C)[C@@H]12 [butulonic acid] |  |  |  |  |  |  |  |  |  |  | has an effect on inhibiting the growth |
